Measurements as given in US10800791B2, “Triazole ACC inhibitors and uses thereof” (Gilead Apollo, LLC, priority 2015, dated 2020).
pIC50: −log10 of the molar value. Values after ≈ are worked out from the molar mass of the structure shown. Read-outs that look alike come from different tables or passages of the source.

Experiments:
[1] = tested on: Botrtyis cinerea (Bc); test: Growth inhibition assay of fungal pathogens, Bc; assay type: cell-based; details: 48 h, Botrtyis cinerea; growth inhibition at 48 hours vs 2% DMSO control; read-out: Concentration at 90% Inhibition Bc
Description: (§1) Compounds of the present invention were evaluated in a growth inhibition assay to determine the ability to control the growth of fungal pathogens, such as Botrtyis cinerea (Bc), Collectotrichum graminicola (Cg), Diplodia maydis (Dm), Fusarium moniliforme (Fm), Fusarium virguliforme (Fv), Phytophthora capsici (Pc), Rhizoctonia solani (Rs), and Septoria tritici (St).
(§2) Compounds to be tested were dissolved in DMSO at 2.5 mg/ml to produce compound stock solutions (“stocks”). Stocks were diluted with DMSO by a five-fold dilution in a 96-well stock plate, and two sets of final concentrations of 50, 10, and 2 ppm or 2, 0.4, and 0.08 ppm were obtained in vitro. A set of positive controls was also prepared, with various concentrations of Soraphen (2, 0.4, and 0.08 ppm), Metalaxyl (1.1, 0.22, and 0.04 ppm), and Metconazole (2, 0.4, and 0.08 ppm or 0.2, 0.04, and 0.008 ppm) after the five-fold dilutions. Negative controls on each plate included 2% DMSO, water, and a blank (media+2% DMSO).
(§3) Fungal spores were isolated from previously sub-cultured plates of Botrtyis cinerea (Bc), Collectotrichum graminicola (Cg), Diplodia maydis (Dm), Fusarium moniliforme (Fm), Fusarium virguliforme (Fv), Phytophthora capsici (Pc), and Septoria tritici (St). The isolated spores were diluted to individual concentrations with a 17% V8 liquid media. For Rhizoctonia solani (Rs) and Pythium irregulare, 1.5 mm mycelial plugs were used in place of spores and/4 Potato Dextrose Broth (PDB) was used for dilution. The spore concentrations and plug sizes were based on growth curves generated at 48 hours for each pathogen.
(§4) In a second 96-well plate, the spores or mycelial plugs, media, diluted compound solutions, and controls were combined. Once the compound was added, a true final concentration of compound in each well was measured by an OD600 reading, which adjusted for any compound precipitation that might have occurred in the well. Plate readings were repeated at both 24 and 48 hours. The blank negative control was used as a background subtraction. Additional visual ratings were performed at both 24 and 48 hours for checking on precipitation and confirming efficacy. Visual and OD600 ratings of the compounds at 48 hours were compared to the 2% DMSO negative control, and the percent of pathogen growth inhibition was determined based on those values.

[2] = tested on: Fusarium virguliforme (Fv); test: Growth inhibition assay of fungal pathogens, Fv; assay type: cell-based; details: 48 h, growth inhibition at 48 hours vs 2% DMSO control, read-out: Concentration at 90% Inhibition Fv
Description: as §1, §2, §3, §4

[3] = biological target: fungal (fACC2) (UniProt Q00955); details: read-out: fACC2 (in vitro ACC2 Inhibition Assay, IC50), ADP-Glo, 5 nM ACC2, 20 μM ATP, 20 μM acetyl-CoA
[4] = tested on: C. parapsilosis; test: Antifungal Activity Assay (broth microtiter MIC), C. parapsilosis; assay type: cell-based, Candida parapsilosis; details: Lodderomyces parapsilosis, ATCC22019, 48 h, ATCC 22019, 3 replicates, MIC recorded at 48 h, read-out: MIC, C. parapsilosis ATCC 22019
Outline: (§5)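 MIC read by eye at 48 h, comparing challenged wells with the growth control. Yeasts grown overnight on Sabouraud dextrose agar at 35° C, suspended in RPMI 1640+MOPS and added at 2.5×10^3 CFU/mL final, following CLSI M27-A3.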

[5] = tested on: Rhizoctonia solani (Rs); test: Growth inhibition assay of fungal pathogens, Rs; assay type: cell-based; details: 48 h, mycelial plugs, growth inhibition at 48 hours vs 2% DMSO control, read-out: Concentration at 90% Inhibition Rs
[6] = tested on: C. albicans; test: Antifungal Activity Assay (broth microtiter MIC), C. albicans; assay type: cell-based, Candida albicans; details: Candida albicans, ATCC90028, 48 h, ATCC 90028, 3 replicates, MIC recorded at 48 h, read-out: MIC, C. albicans ATCC 90028
Outline: as §5

[7] = tested on: Fusarium moniliforme (Fm); test: Growth inhibition assay of fungal pathogens, Fm; assay type: cell-based; details: Fusarium verticillioides, 48 h, Fusarium moniliforme; growth inhibition at 48 hours vs 2% DMSO control; read-out: Concentration at 90% Inhibition Fm
Description: as §1, §2, §3, §4

[8] = biological target: human (hACC2) (Homo sapiens, UniProt O00763); test: In vitro ACC inhibition assay (ADP-Glo), hACC2; assay type: biochemical; details: 5 nM ACC2, 20 μM ATP, 20 μM acetyl-CoA
Description: The detailed procedure is as follows. […] 10 μL ADP glo reagent was added. […] 20 μL kinase detection reagent was added.

[9] = tested on: Collectotrichum graminicola (Cg); test: Growth inhibition assay of fungal pathogens, Cg; assay type: cell-based; details: 48 h, Collectotrichum graminicola; growth inhibition at 48 hours vs 2% DMSO control; read-out: Concentration at 90% Inhibition Cg
Description: as §1, §2, §3, §4

[10] = tested on: Septoria tritici (St); test: Growth inhibition assay of fungal pathogens, St; assay type: cell-based; details: Zymoseptoria tritici, 48 h, Septoria tritici; growth inhibition at 48 hours vs 2% DMSO control; read-out: Concentration at 90% Inhibition St
Description: as §1, §2, §3, §4

[11] = tested on: Diplodia maydis (Dm); test: Growth inhibition assay of fungal pathogens, Dm; assay type: cell-based; details: Stenocarpella maydis, 48 h, Diplodia maydis; growth inhibition at 48 hours vs 2% DMSO control; read-out: Concentration at 90% Inhibition Dm
Description: as §1, §2, §3, §4

[12] = tested on: C. krusei; test: Antifungal Activity Assay (broth microtiter MIC), C. krusei; assay type: cell-based, Candida krusei; details: Pichia kudriavzevii, ATCC6258, 48 h, ATCC 6258, 3 replicates, MIC recorded at 48 h, read-out: MIC, C. krusei ATCC 6258
Outline: as §5

[13] = tested on: Phytophthora capsici (Pc); test: Growth inhibition assay of fungal pathogens, Pc; assay type: cell-based; details: 48 h, growth inhibition at 48 hours vs 2% DMSO control, read-out: Concentration at 90% Inhibition Pc
Description: as §1, §2, §3, §4

human (hACC2), sequence (O00763 whole entry): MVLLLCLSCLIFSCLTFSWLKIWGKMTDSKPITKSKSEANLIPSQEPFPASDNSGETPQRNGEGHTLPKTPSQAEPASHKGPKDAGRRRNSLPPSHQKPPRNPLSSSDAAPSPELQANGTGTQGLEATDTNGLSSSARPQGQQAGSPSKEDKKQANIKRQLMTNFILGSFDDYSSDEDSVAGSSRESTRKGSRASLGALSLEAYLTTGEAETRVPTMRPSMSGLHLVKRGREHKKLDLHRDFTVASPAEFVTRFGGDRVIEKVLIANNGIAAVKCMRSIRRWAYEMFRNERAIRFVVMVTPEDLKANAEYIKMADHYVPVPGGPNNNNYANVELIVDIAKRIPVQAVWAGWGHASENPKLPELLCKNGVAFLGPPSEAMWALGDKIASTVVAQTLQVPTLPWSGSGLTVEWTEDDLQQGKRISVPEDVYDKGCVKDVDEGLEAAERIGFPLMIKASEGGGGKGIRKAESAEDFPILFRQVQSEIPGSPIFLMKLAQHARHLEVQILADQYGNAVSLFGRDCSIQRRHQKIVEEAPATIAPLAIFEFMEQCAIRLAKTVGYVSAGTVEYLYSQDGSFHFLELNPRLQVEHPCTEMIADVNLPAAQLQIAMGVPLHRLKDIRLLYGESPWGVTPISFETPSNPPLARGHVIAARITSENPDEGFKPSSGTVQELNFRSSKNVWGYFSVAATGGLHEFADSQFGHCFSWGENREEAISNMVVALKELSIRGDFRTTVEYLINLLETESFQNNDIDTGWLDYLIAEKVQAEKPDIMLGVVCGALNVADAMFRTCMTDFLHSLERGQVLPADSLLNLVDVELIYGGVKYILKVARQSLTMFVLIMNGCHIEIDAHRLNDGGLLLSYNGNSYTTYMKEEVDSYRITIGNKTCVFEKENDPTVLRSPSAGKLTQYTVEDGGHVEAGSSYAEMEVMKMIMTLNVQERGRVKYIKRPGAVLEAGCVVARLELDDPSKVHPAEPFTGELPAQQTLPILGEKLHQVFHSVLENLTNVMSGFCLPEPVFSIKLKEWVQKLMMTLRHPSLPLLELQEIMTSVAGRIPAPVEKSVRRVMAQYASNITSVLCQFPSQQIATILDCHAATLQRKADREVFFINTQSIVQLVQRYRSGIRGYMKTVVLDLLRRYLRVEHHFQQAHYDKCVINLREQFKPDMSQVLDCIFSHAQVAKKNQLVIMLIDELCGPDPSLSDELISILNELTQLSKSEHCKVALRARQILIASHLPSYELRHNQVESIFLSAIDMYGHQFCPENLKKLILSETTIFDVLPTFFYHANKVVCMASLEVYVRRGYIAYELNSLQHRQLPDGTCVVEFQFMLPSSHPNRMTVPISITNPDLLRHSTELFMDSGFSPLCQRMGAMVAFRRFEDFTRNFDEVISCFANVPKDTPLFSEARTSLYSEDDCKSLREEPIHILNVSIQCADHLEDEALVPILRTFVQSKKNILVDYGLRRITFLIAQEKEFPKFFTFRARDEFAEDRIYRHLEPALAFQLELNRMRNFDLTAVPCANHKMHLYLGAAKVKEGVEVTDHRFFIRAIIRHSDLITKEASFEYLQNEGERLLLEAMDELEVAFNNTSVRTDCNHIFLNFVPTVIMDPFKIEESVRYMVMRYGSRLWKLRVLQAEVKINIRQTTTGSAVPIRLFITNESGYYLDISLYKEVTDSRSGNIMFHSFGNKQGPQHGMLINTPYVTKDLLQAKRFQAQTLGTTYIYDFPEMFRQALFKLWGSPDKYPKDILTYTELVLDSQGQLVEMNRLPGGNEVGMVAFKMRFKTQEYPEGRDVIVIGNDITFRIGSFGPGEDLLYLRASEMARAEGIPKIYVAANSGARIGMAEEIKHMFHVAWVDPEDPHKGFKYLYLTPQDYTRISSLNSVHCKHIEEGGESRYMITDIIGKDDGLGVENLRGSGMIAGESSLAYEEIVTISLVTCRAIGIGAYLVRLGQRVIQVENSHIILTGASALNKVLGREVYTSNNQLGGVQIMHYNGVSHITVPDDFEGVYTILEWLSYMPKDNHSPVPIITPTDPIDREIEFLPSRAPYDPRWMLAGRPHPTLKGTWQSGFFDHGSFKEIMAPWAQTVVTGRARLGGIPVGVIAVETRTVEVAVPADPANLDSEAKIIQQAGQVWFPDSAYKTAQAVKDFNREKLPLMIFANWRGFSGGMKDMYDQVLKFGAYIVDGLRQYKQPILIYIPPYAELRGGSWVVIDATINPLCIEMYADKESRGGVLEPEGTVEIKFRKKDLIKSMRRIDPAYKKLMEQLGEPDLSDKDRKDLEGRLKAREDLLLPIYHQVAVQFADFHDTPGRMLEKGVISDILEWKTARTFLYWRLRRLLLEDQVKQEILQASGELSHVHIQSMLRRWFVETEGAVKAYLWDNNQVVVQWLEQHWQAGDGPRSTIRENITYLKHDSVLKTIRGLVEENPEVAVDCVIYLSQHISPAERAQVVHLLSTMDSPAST
fungal (fACC2), sequence (Q00955 whole entry): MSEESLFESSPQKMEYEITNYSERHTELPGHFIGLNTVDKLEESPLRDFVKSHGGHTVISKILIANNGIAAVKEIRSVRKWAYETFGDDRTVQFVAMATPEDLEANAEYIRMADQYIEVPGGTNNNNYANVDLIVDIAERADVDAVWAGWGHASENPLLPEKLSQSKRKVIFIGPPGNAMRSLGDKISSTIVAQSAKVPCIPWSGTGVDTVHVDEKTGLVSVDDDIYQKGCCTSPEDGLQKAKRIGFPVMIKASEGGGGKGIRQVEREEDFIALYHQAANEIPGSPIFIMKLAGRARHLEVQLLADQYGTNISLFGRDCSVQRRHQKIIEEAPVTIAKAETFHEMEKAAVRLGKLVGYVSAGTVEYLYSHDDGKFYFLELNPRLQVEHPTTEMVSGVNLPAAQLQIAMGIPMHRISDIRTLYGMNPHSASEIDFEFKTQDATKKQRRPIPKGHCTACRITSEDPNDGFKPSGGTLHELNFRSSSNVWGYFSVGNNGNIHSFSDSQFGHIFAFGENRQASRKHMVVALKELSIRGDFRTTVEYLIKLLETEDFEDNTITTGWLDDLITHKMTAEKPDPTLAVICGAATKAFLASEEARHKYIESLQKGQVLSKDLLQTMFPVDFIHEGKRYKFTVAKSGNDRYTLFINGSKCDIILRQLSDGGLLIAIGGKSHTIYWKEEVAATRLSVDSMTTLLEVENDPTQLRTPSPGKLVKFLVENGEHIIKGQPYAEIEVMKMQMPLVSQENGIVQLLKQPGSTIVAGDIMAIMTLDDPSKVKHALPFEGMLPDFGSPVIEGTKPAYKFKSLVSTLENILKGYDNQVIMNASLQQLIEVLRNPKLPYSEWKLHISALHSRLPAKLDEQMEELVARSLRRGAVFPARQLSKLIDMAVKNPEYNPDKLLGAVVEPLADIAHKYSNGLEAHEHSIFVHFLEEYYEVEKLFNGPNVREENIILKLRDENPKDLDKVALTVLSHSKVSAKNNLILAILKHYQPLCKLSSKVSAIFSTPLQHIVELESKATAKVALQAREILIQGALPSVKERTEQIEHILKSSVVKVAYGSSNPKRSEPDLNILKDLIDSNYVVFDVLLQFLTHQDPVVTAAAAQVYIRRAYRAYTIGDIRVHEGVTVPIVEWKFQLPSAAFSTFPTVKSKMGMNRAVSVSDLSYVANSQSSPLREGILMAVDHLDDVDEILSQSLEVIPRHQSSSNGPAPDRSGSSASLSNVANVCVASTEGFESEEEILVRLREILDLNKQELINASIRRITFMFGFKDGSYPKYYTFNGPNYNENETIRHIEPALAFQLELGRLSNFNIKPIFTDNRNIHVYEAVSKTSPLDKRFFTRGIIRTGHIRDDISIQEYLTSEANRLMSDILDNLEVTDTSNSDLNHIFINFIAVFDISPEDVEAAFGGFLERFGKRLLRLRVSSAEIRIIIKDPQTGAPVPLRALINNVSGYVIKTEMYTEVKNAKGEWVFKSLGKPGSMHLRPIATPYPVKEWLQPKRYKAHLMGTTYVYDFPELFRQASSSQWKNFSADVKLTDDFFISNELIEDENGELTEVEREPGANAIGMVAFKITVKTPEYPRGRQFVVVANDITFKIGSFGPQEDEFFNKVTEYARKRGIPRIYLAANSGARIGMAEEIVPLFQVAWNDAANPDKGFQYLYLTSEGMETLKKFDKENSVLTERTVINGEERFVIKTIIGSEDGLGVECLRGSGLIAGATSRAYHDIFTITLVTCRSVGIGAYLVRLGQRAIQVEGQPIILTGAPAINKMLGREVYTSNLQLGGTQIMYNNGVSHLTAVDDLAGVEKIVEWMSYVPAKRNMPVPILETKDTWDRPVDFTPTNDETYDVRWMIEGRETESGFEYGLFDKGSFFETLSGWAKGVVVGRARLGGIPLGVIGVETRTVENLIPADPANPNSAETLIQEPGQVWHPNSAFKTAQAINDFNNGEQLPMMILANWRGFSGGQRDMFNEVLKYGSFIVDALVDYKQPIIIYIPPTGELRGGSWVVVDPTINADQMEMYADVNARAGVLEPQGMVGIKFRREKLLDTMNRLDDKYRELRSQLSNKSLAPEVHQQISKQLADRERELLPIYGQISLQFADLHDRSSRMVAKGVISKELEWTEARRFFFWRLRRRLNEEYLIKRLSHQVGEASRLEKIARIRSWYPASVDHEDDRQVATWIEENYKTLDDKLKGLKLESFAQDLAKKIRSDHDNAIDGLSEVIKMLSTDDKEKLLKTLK

SMILES | IC90 [1] | IC90 [2] | pIC50 ([3]; Table 2a) | pIC50 ([3]; Table 2b, additional results) | MIC ([4]; Table 3a) | MIC ([4]; Table 3b (additional results)) | IC90 [5] | MIC ([6]; Table 3a) | MIC ([6]; Table 3b (additional results)) | IC90 [7] | pIC50 ([8]; Table 2a) | pIC50 ([8]; Table 2b, additional results) | IC90 [9] | IC90 [10] | IC90 [11] | MIC ([12]; Table 3a) | MIC ([12]; Table 3b (additional results)) | IC90 [13]
CCNC(=O)C(C)(C)n1c(=O)c2c(C)c(-n3nccn3)sc2n(C[C@H](OCCC#N)c2cc(F)ccc2OC)c1=O [Compound I-140] | 0.4 µg/mL (≈ 0.685 µM) | 0.4 µg/mL (≈ 0.685 µM) | 8.30 to 9.00 | 8.30 to 9.00 | 2.1 to 4 µg/mL (≈ 3.6 to 6.85 µM) | 1.01 to 2 µg/mL (≈ 1.73 to 3.43 µM) | 0.08 µg/mL (≈ 0.137 µM) | 1.1 to 2 µg/mL (≈ 1.88 to 3.43 µM) | 2.01 to 4 µg/mL (≈ 3.44 to 6.85 µM) | 0.08 µg/mL (≈ 0.137 µM) | 8.00 to 8.30 | 8.00 to 8.30 | 0.4 µg/mL (≈ 0.685 µM) | > 50 µg/mL | 0.4 µg/mL (≈ 0.685 µM) | 0.25 to 1 µg/mL (≈ 0.428 to 1.71 µM) | 2.01 to 4 µg/mL (≈ 3.44 to 6.85 µM) | > 50 µg/mL
CNC(=O)C(C)(C)n1c(=O)c2c(C)c(-n3nccn3)sc2n(C[C@H](OCCC#N)c2cc(F)ccc2OC)c1=O [Compound I-141] | 2 µg/mL (≈ 3.51 µM) | 2 µg/mL (≈ 3.51 µM) | 8.30 to 9.00 | 8.30 to 9.00 | 2.1 to 4 µg/mL (≈ 3.69 to 7.02 µM) | 2.01 to 4 µg/mL (≈ 3.53 to 7.02 µM) | 0.08 µg/mL (≈ 0.14 µM) | 2.1 to 4 µg/mL (≈ 3.69 to 7.02 µM) | > 4.01 µg/mL | 0.08 µg/mL (≈ 0.14 µM) | 8.00 to 8.30 | 8.00 to 8.30 | 10 µg/mL (≈ 17.6 µM) | > 50 µg/mL | 2 µg/mL (≈ 3.51 µM) | 2.1 to 4 µg/mL (≈ 3.69 to 7.02 µM) | 2.01 to 4 µg/mL (≈ 3.53 to 7.02 µM) | > 50 µg/mL
CCNC(=O)C(C)(C)n1c(=O)c2c(C)c(-n3nccn3)sc2n(C[C@H](OCCC#N)c2ccccc2OC)c1=O [Compound I-142] | 0.4 µg/mL (≈ 0.707 µM) | 0.4 µg/mL (≈ 0.707 µM) | 8.30 to 9.00 | 8.30 to 9.00 | 2.1 to 4 µg/mL (≈ 3.71 to 7.07 µM) | 1.01 to 2 µg/mL (≈ 1.79 to 3.54 µM) | 0.08 µg/mL (≈ 0.141 µM) | 2.1 to 4 µg/mL (≈ 3.71 to 7.07 µM) | 2.01 to 4 µg/mL (≈ 3.55 to 7.07 µM) | 0.4 µg/mL (≈ 0.707 µM) | 8.30 to 9.00 | 8.30 to 9.00 | 2 µg/mL (≈ 3.54 µM) | > 50 µg/mL | 2 µg/mL (≈ 3.54 µM) | 1.1 to 2 µg/mL (≈ 1.94 to 3.54 µM) | 2.01 to 4 µg/mL (≈ 3.55 to 7.07 µM) | > 50 µg/mL
CNC(=O)C(C)(C)n1c(=O)c2c(C)c(-n3nccn3)sc2n(C[C@H](OCCC#N)c2ccccc2OC)c1=O [Compound I-143] | 2 µg/mL (≈ 3.63 µM) | 10 µg/mL (≈ 18.1 µM) | 8.30 to 9.00 | 8.30 to 9.00 | 2.1 to 4 µg/mL (≈ 3.81 to 7.25 µM) | 1.01 to 2 µg/mL (≈ 1.83 to 3.63 µM) | 0.08 µg/mL (≈ 0.145 µM) | 2.1 to 4 µg/mL (≈ 3.81 to 7.25 µM) | 2.01 to 4 µg/mL (≈ 3.64 to 7.25 µM) | 0.08 µg/mL (≈ 0.145 µM) | 8.00 to 8.30 | 8.00 to 8.30 | > 50 µg/mL | > 50 µg/mL | 10 µg/mL (≈ 18.1 µM) | 2.1 to 4 µg/mL (≈ 3.81 to 7.25 µM) | 2.01 to 4 µg/mL (≈ 3.64 to 7.25 µM) | > 50 µg/mL
